We go through 68 molecules from PubChem BioAssay AID179 (DTP/NCI, 2004).

The test relates to CEM cells HIV-1 protection, formazan growth assay. Description: NCI AIDS Antiviral Assay. The note with it: for IC50: measured here: growth of uninfected CEM cells. In outline:
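Category rules: moderately active means at least 50% protection on retest, and confirmed active means 100% protection reproducibly. The underlying data came from a formazan growth assay in HIV-1-infected CEM cells.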

The structures appear in SMILES notation. “And” between values parts separate entries of the source, which are not always exact repeats. Equal values may be shown once. The source made the active and inactive calls.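 Rule for the calls: active = compounds giving half or more protection of infected cells from virus-caused growth loss, again on retest; inactive = the rest.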 Where a SMILES comes first, the peptide text is derived from it. Some results are limits rather than exact numbers.

Molecule `Cc1ccc(C(=O)c2ccccc2C(=O)O)cc1C(=O)O` displayed an EC50 above 200 µM and an IC50 above 200 µM.

In the case of `COc1cc(/C=C2\SC(=S)N(/C=C/c3nc4ccccc4[nH]c3=O)C2=O)cc(OC)c1OC`, the EC50 was above 200 µM and the IC50 was 18.2 µM.

As for `O=C1CC(c2ccccc2)Oc2cc(O)cc(O)c21` (stereo unspecified), the EC50 was above 200 µM; the IC50 was 34.7 µM and > 200 µM and 55 µM. As for `CC(=O)OCC1OC(n2c3c(cc(C#N)c2=S)CCCCC3)C(OC(C)=O)C(OC(C)=O)C1OC(C)=O` (stereo unspecified), the EC50 is above 200 µM and the IC50 was above 200 µM. Turning to `CC(C)(C)c1cc(C2COC(=O)COCCOCC(=O)OCCOCCO2)cc(C(C)(C)C)c1O` (stereo unspecified), the EC50 is above 200 µM and the IC50 was determined as 178 µM. In the same order, the values of `N#Cc1ccccc1Nc1ccccc1S` are above 16.6 µM and above 16.6 µM.

Turning to `C=C(C)C1CCC2(CO)C(O)CC3(C)C(CCC4C5(C)CCC(O)C(C)(C)C5CCC43C)C12` (stereo unspecified), the EC50 was above 100 µM and the IC50 worked out at 75.9 µM. Take `NS(=O)(=O)c1ccc(NC(=O)c2cccn3c(=O)c4ccccc4nc23)cc1`: the result was inactive.

`COC(=O)C1=C(C)C(=O)[C@H]2C(C(=O)OC)CCCC[C@@H]12` (stereo partly specified): the EC50 is above 200 µM and the IC50 was determined as 129 µM. In the same order, the values of `Cc1c(C#N)c2nc(C(=O)c3ccc(Br)cc3)cc(-c3ccc(Br)cc3)n2c1C` are above 50.1 µM and above 50.1 µM. Regarding `N#Cc1c(-c2ccccc2)cc(-c2ccccc2)n(C2OC(CO)C(O)C(O)C2O)c1=S` (stereo unspecified), the EC50 is above 200 µM; the IC50 was 15.1 µM and 26.9 µM.

In the case of `O=C1CCCCC(=O)Nc2ccccc2-c2ccccc2N1`, the outcome was inactive. Take `CC(C)N([PH2+]N(C(C)C)C(C)C)C(C)C.[C-]#[O+].[C-]#[O+].[C-]#[O+].[C-]#[O+].[C-]#[O+].[Mo]`: the EC50 was above 77.6 µM and the IC50 is above 77.6 µM.

In the case of `O=C(Cn1c(=O)oc2ccccc21)N(c1ccccc1)c1ccccc1`, the EC50 is above 200 µM and the IC50 is above 200 µM.

Regarding `CCCCNC(C)(C)C(SSSC(c1cccs1)C(C)(C)NCCCC)c1cccs1` (stereo unspecified), the EC50 is above 200 µM and the IC50 amounted to 20 µM.

Regarding `COc1c(Cl)cc(C(=CCCCCN[C@@H]2CC[C@@]3(C)[C@@H](CC[C@@H]4[C@@H]3CC[C@]3(C)[C@@H](C(C)CCCC(C)C)CC[C@@H]43)C2)c2cc(Cl)c(OC)c(C(=O)O)c2)cc1C(=O)O` (stereo partly specified), the EC50 was above 200 µM and the IC50 is above 200 µM. Consider `C=C(c1ccc(OC)c(OC)c1)c1nccc2cc(OC)c(OC)cc12`, for which the EC50 is above 74.1 µM and the IC50 turned out to be 12.6 µM. Take `CC(C)CCCC(C)[C@H]1CC[C@H]2[C@@H]3CC[C@H]4C[C@@H](CCC=C(c5cc(Cl)c(OC(=O)C(C)C)c(C(=O)O)c5)c5cc(Cl)c(OC(=O)C(C)C)c(C(=O)O)c5)CC[C@]4(C)[C@H]3CC[C@]12C` (stereo partly specified): the EC50 was 105 µM and the IC50 is 126 µM. In the same order, the values of `O=[N+]([O-])c1ccc(C2=Nc3ccccc3SC(c3ccccc3)C2)cc1` (stereo unspecified) are above 27.5 µM and above 27.5 µM. In the same order, the values of `CCc1c(Cc2ccccc2)n(COCCCO[Si](C)(C)C(C)(C)C)c(=O)[nH]c1=O` are above 200 µM and 10 µM.

Regarding `COc1ccc2nc3cccc([N+](=O)[O-])c3c(NCCO)c2c1`, the EC50 is above 2 µM and the IC50 was 0.0309 µM. `CCOC(=O)C1C(=O)CC(O)(c2ccccc2)C(C(=O)OCC)C1c1ccc(OC)cc1` (stereo unspecified): the EC50 is above 200 µM and the IC50 was 5.01 µM. Regarding `NC(=O)c1c(-c2ccccc2)c(-c2ccccc2)cc2c(=O)c3ccccc3[nH]c12`, the result was inactive. In the case of `O=C(O)C1CCSS1` (stereo unspecified), the EC50 was above 457 µM and the IC50 is 263 µM. For the molecule `COc1ccc(C(=O)C(CC2C(=O)CC(C)(C)C(C(=O)C(=O)Nc3c(C)cccc3C)C2=O)c2ccc(OC)cc2)cc1` (stereo unspecified), the EC50 is above 427 µM and the IC50 is 372 µM. `CC(=O)NCCSSSCCNC(C)=O`: the EC50 is above 200 µM and the IC50 amounted to 0.891 µM. For `Cc1cc(=O)n(-c2c(C)cccc2Cl)c(/C=C(\O)c2ccncc2)n1`, the EC50 was above 4.07 µM and the IC50 is above 4.07 µM. Consider `CSc1nc(-c2ccc(C)cc2)c(C#N)c(=O)[nH]1`, for which the result was inactive. With `O=[N+]([O-])/C=C/c1cn(CCCCCCCCn2cc(/C=C/[N+](=O)[O-])c3ccccc32)c2ccccc12`, the EC50 was above 200 µM and the IC50 is 35.5 µM.

For `O=C1C2Nc3ccccc3SC2C(=O)N1c1ccccc1C(F)(F)F` (stereo unspecified), the EC50 was above 20 µM and the IC50 is 15.1 µM. For the molecule `COc1ccc(-c2cc(=O)c3c(O)cc(O)cc3o2)cc1OC`, the EC50 is above 70.8 µM and the IC50 was above 70.8 µM.

Turning to `Cc1cccnc1NC(=S)Nc1ccccc1Cl`, the EC50 was above 200 µM and the IC50 is 0.813 µM. Taken in the same sequence, the figures for `Cc1cc(NS(=O)(=O)c2ccc(NC(NC(=O)OC(C)C)(C(F)(F)F)C(F)(F)F)cc2)nc(C)n1` were above 200 µM and above 200 µM.

In the case of `CN(C)Cc1cc(C(=O)/C=C/c2c(Cl)cccc2Cl)cc(CN(C)C)c1O`, the EC50 is above 200 µM and the IC50 was found to be 2.69 µM. Taken in the same sequence, the figures for `O=C1CC(C(=O)N2CCCCC2)n2c(=O)n(-c3ccccc3)c(=O)n2C1` (stereo unspecified) were above 200 µM and above 200 µM. `N=C1SC2CCCCCCC2S1` (stereo unspecified): the EC50 is above 200 µM and the IC50 was above 200 µM. As for `Cc1c(C(=O)C/C(=N/NC(=O)c2ccccc2)C(=O)Nc2ccc(Cl)cc2)[n+](=O)c2ccccc2n1[O-]`, the EC50 is above 34.7 µM and the IC50 was 20.4 µM.

As for `COc1cccc(C2c3cc4c(cc3OC(N3CCCC3)C2C)OCO4)c1OC` (stereo unspecified), the EC50 was above 200 µM and the IC50 is 1.41 µM. In the same order, the values of `O=S1OCCO1` are above 2290 µM and above 2290 µM. Regarding `CC(C)(C)C(=CS(=O)/N=C/c1ccccc1)C(C)(C)C` (stereo unspecified), the EC50 was above 24.5 µM and the IC50 was above 24.5 µM. As for `CCCCOC(=O)C(O)Cc1ccoc1` (stereo unspecified), the EC50 is above 200 µM and the IC50 is above 200 µM. Turning to `COC(=O)c1cccc2cccc(C(=O)Nc3ccc(C)cc3C)c12`, the EC50 is above 2.24 µM and the IC50 is above 2.24 µM.

As to `COc1nc2c(nc(N)n2C2OC(CO)C(O)C(O)C2O)c(=O)n1C` (stereo unspecified), the result was inactive. With `[N-]=[N+]=NC1=C(N=[N+]=[N-])c2cccc3cccc(c23)C1=O`, the result was inactive. With `O=C(CN1CCN(c2ccccc2)CC1)N1CCc2c([nH]c3ccccc23)C1c1cccnc1` (stereo unspecified), the EC50 is above 1.58 µM and the IC50 was above 1.58 µM. Regarding `O=S1(=O)CC(c2ccccc2)(c2ccccc2)Nc2ccccc21`, the EC50 is above 200 µM and the IC50 was above 100 µM. As for `O=S(=O)(c1ccccc1)C1(C2(S(=O)(=O)c3ccccc3)CCN=N2)CCN=N1` (stereo unspecified), the outcome was inactive.

For `COc1ccc(C2C(Cl)C(=O)N2NC(=O)c2ccccc2O)cc1OC` (stereo unspecified), the EC50 was above 50.1 µM and the IC50 amounted to 41.7 µM. In the same order, the values of `CC1=NN(C(=O)Cc2ccccc2)C(=O)/C1=C\c1ccc([N+](=O)[O-])cc1` are above 53.7 µM and above 53.7 µM.

In the case of `Cc1ccc(C(=O)CC2(O)C(=O)Nc3c(C)cc(Cl)cc32)cc1` (stereo unspecified), the EC50 was above 110 µM and the IC50 was above 110 µM.

In the case of `Cc1nc2n[nH]c(N)c2nc1C`, the EC50 was above 83.2 µM and the IC50 is above 83.2 µM.

Take `Cc1ccc(C)c2c1CC(Cc1ccccc1C(=O)O)C2=O` (stereo unspecified): the EC50 is above 200 µM and the IC50 was found to be 158 µM.

As to `CCOc1ncn(-c2ccc(NC(=S)NC3OC(CO)C(O)C(O)C3O)cc2)n1` (stereo unspecified), the EC50 is above 200 µM and the IC50 was above 200 µM. Consider `O=[N+]([O-])/C=C/c1cn(CCCCCCCCCCCCn2cc(/C=C/[N+](=O)[O-])c3ccccc32)c2ccccc12`, for which the EC50 is above 100 µM and the IC50 is above 100 µM. `O=[N+]([O-])c1ccc2c(c1)c1nn2CCCCOc2nn(c3ccc([N+](=O)[O-])cc23)CCCCO1`: the EC50 was above 200 µM and the IC50 is above 200 µM. On to `CCN(CC)CCC(=O)N1C/C(=C/c2ccccc2)C(=O)/C(=C\c2ccccc2)C1`, for which the EC50 was above 200 µM and the IC50 was determined as 0.407 µM. In the same order, the values of `Cc1ccc(S(=O)(=O)SCCCSS(=O)(=O)c2ccc(C)cc2)cc1` are above 89.1 µM and 15.5 µM. Taken in the same sequence, the figures for `CC1=C(c2ccccc2)CON(c2ccccc2)C1` were above 53.7 µM and above 53.7 µM. Turning to `Cn1c(N)c(/C=C/C(=O)Oc2ccccc2)c(=O)n(C)c1=O`, the result was inactive. On to `CCc1cc(-c2cccc3ccccc23)c(C#N)c(=S)n1C1OC(CO)C(O)C(O)C1O` (stereo unspecified), for which the EC50 was above 200 µM and the IC50 was 61.7 µM.

For the molecule `N/C(=N/N=C/c1cc(Cl)ccc1O)N/N=C\c1cc(Cl)ccc1O`, the EC50 was above 2 µM and the IC50 worked out at 1 µM. Turning to `COC(=O)C1=C(C(=O)OC)SC(=C2C(=O)c3ccccc3-c3ccccc32)S1`, the result was inactive. Take `CCc1c(Cc2cc(C)cc(C)c2)n(COCCO[Si](C)(C)C(C)(C)C)c(=O)[nH]c1=O`: the EC50 was 0.646 µM and the IC50 stood at 11.5 µM.

As to `CN(C)/C(N)=N/C(N)=S`, the outcome was inactive. For `C[C@@H](NC(=O)c1ccccc1SC(=O)NCCCCl)C(N)=O`, the EC50 stood at 3.39 µM and the concentration for half-maximal inhibition (IC50) was found to be 49 µM.

For the molecule `COc1cc2c(cc1OC)C(OC)N(C)c1c-2ccc2cc3c(cc12)OCO3` (stereo unspecified), the EC50 was above 20 µM and the IC50 amounted to 0.309 µM. Regarding `Fc1ccccc1C1SCc2nc3cc4ccccc4cc3n21` (stereo unspecified), the EC50 is above 200 µM and the IC50 is 75.9 µM.

In the case of `CC(NC(=O)CNC(=O)C(N)CO)C(=O)NC(CCC(=O)O)C(=O)NC(CCCCN)C(=O)NC(C(=O)NC(CCC(N)=O)C(=O)NC(CCC(=O)O)C(=O)NC(CCC(N)=O)C(=O)NC(CCCN=C(N)N)C(=O)NC(C)C(=O)NC(CC(N)=O)C(=O)NC(C)C(=O)NC(Cc1cnc[nH]1)C(=O)NC(CO)C(=O)O)C(C)O` (stereo unspecified) (H-SGAEKTQEQRANAHS-OH; configuration not given here), the EC50 is above 100 µM and the IC50 is above 100 µM.

As a reminder, the EC50 is the concentration at which the effect is half-maximal. Broadly, the IC50 is the concentration that inhibits the measured activity by half.
